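Cultured in 96-well plates, cells were exposed to test compound for 48 hours across five concentrations. TGI denotes the concentration required for complete inhibition of growth.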
Assays:
Test in all cases: inhibition of tumour cell growth, NCI panel, 48 h
[1] = test system: 786-0 renal
[2] = test system: A549 NSCLC
[3] = test system: ACHN renal
[4] = test system: BT-549 breast
[5] = test system: CAKI-1 renal
[6] = test system: CCRF-CEM leukemia
[7] = test system: COLO 205 colon
[8] = test system: EKVX NSCLC
[9] = test system: HCT-116 colon
[10] = test system: HCT-15 colon
[11] = test system: HL-60(TB) leukemia
[12] = test system: HOP-62 NSCLC
[13] = test system: HOP-92 NSCLC
[14] = test system: HS 578T breast
[15] = test system: HT29 colon
[16] = test system: IGROV1 ovarian
[17] = test system: K-562 leukemia
[18] = test system: KM12 colon
[19] = test system: LOX IMVI melanoma
[20] = test system: M14 melanoma
[21] = test system: MALME-3M melanoma
[22] = test system: MCF7 breast
[23] = test system: MDA-MB-435
[24] = test system: MOLT-4 leukemia
[25] = test system: NCI-H226 lung
[26] = test system: NCI-H23 lung
[27] = test system: NCI-H460 lung
[28] = test system: NCI-H522 lung
[29] = test system: NCI/ADR-RES ovarian
[30] = test system: OVCAR-3 ovarian
[31] = test system: OVCAR-4 ovarian
[32] = test system: OVCAR-5 ovarian
[33] = test system: OVCAR-8 ovarian
[34] = test system: PC-3 prostate
[35] = test system: RPMI-8226 leukemia
[36] = test system: SF-295 CNS
[37] = test system: SK-MEL-2 melanoma
[38] = test system: SK-MEL-28 melanoma
[39] = test system: SK-MEL-5 melanoma
[40] = test system: SK-OV-3 ovarian
[41] = test system: SN12C renal
[42] = test system: SNB-19 CNS
[43] = test system: SNB-75 CNS
[44] = test system: SR leukemia
[45] = test system: SW-620 colon
[46] = test system: T-47D breast
[47] = test system: TK-10 renal
[48] = test system: U251 CNS
[49] = test system: UACC-257 melanoma
[50] = test system: UACC-62 melanoma
[51] = test system: UO-31 renal

c1ccc(N=C(N2CCCC2)N(CCN2CCCC2)c2ccccc2)cc1
TGI [1]: > 100 µM | TGI [2]: > 100 µM | TGI [3]: > 100 µM | TGI [4]: 84.5 µM | TGI [5]: > 100 µM | TGI [6]: > 100 µM | TGI [7]: 75.4 µM | TGI [8]: > 100 µM | TGI [9]: > 100 µM | TGI [10]: > 100 µM | TGI [11]: > 100 µM | TGI [12]: > 100 µM | TGI [13]: > 100 µM | TGI [14]: > 100 µM | TGI [15]: 14.8 µM | TGI [16]: > 100 µM | TGI [17]: > 100 µM | TGI [18]: 41.7 µM | TGI [19]: > 100 µM | TGI [20]: 27 µM | TGI [21]: > 100 µM | TGI [22]: > 100 µM | TGI [23]: > 100 µM | TGI [24]: > 100 µM | TGI [25]: > 100 µM | TGI [26]: > 100 µM | TGI [27]: 75.8 µM | TGI [28]: > 100 µM | TGI [29]: > 100 µM | TGI [30]: > 100 µM | TGI [31]: > 100 µM | TGI [32]: > 100 µM | TGI [33]: > 100 µM | TGI [34]: > 100 µM | TGI [35]: > 100 µM | TGI [36]: 35.6 µM | TGI [37]: > 100 µM | TGI [38]: > 100 µM | TGI [39]: 24.5 µM | TGI [40]: > 100 µM | TGI [41]: > 100 µM | TGI [42]: > 100 µM | TGI [43]: 78 µM | TGI [44]: > 100 µM | TGI [45]: > 100 µM | TGI [46]: > 100 µM | TGI [47]: > 100 µM | TGI [48]: > 100 µM | TGI [49]: 67.6 µM | TGI [50]: > 100 µM | TGI [51]: > 100 µM

— PubChem BioAssay (NCI)
